Data reported in patent US10562909B2, “Fused quadracyclic compounds, compositions and uses thereof” (Tabomedex Biosciences, LLC, priority 2016, dated 2020).

The compounds below were run against MAPKAPK2 (Homo sapiens, UniProt P49137) (assay: MK2 Enzymatic Assay). Conditions: 0.5 nM MAPKAPK2, 3 μM ATP, 2 μM Ser/Thr4 peptide, 23° C., values given as concentration bins.
MAPKAPK2, sequence (P49137 whole entry, species assumed): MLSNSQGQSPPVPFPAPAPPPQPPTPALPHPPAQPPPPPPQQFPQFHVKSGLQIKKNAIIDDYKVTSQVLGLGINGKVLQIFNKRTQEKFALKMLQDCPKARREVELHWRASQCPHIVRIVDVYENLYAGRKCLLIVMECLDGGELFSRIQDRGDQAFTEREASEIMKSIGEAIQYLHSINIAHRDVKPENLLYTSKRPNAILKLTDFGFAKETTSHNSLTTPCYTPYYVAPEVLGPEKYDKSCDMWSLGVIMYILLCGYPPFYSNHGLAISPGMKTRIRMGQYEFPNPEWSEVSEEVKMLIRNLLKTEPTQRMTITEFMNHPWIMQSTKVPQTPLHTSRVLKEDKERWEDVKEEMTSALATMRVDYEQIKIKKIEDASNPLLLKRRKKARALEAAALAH
Type: biochemical
Procedure, shortened: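 MAPKAPK2 (2× stock 1 nM) and peptide substrate (2× 4 μM) were preincubated 20 min, then started with ATP (2× stock 6 μM) for 120 min. After 120 min development, coumarin/fluorescein emission ratio gave percent phosphorylation against 0% and 100% phosphopeptide controls.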
An IC50 of less than 50 nM was found for `CN(C)C[C@H]1CN(c2ccc3c(c2)Cn2cc(-c4ccc(F)cc4)cc2-c2nccn2-3)C[C@H]1F` [Compound 467, 1-((3S,4S)-4-fluoro-1-(12-(4-fluorophenyl)-9H-benzo[e]imidazo[2,1-c]pyrrolo[1,2-a][1,4]diazepin-7-yl)pyrrolidin-3-yl)-N,N-dimethylmethanamine] in this work. An IC50 of less than 50 nM was found for `CN(C)C[C@@H]1CN(c2ccc3c(c2)Cn2cc(-c4ccc(F)cc4)cc2-c2nccn2-3)C[C@H]1O` [Compound 357, (3S,4R)-4-((dimethylamino)methyl)-1-(12-(4-fluorophenyl)-9H-benzo[e]imidazo[2,1-c]pyrrolo[1,2-a][1,4]diazepin-7-yl)pyrrolidin-3-ol] in this work. An IC50 of less than 50 nM was found for `NCC[C@H]1CN(c2ccc3c(c2)Cn2cc(-c4ccc(F)cc4)cc2-c2nccn2-3)C[C@@H]1O` (relative stereo) [Compound 492, Trans-4-(2-aminoethyl)-1-(12-(4-fluorophenyl)-9H-benzo[e]imidazo[2,1-c]pyrrolo[1,2-a][1,4]diazepin-7-yl)pyrrolidin-3-ol] in this work. An IC50 of less than 50 nM was found for `CN(C)[C@H]1CN(c2ccc3c(c2)Cn2cc(-c4ccc(C#N)cc4)cc2-c2nccn2-3)C[C@H]1O` [Compound 133, 4-(7-((3S,4R)-3-(dimethylamino)-4-hydroxypyrrolidin-1-yl)-9H-benzo[e]imidazo[2,1-c]pyrrolo[1,2-a][1,4]diazepin-12-yl)benzonitrile] in this work. An IC50 of less than 50 nM was found for `CN(C)C[C@H]1CCN(c2ccc3c(c2)Cn2cc(-c4ccc(F)cc4)cc2-c2nccn2-3)C1` [Compound 346, (R)-1-(1-(12-(4-fluorophenyl)-9H-benzo[e]imidazo[2,1-c]pyrrolo[1,2-a][1,4]diazepin-7-yl)pyrrolidin-3-yl)-N,N-dimethylmethanamine] in this work. An IC50 of less than 50 nM was found for `C[C@H](CO)NC[C@@H]1CCN(c2ccc3c(c2)Cn2cc(-c4ccc(F)cc4)cc2-c2ncnn2-3)C1` [Compound 419, (R)-2-((((S)-1-(12-(4-fluorophenyl)-9H-benzo[e]pyrrolo[1,2-a][1,2,4]triazolo[5,1-c][1,4]diazepin-7-yl)pyrrolidin-3-yl)methyl)amino)propan-1-ol] in this work. An IC50 of 50 to 100 nM was found for `N#Cc1ccc(-c2cc3n(c2)Cc2cc(N4CCC5(CNC5)C4)ncc2-n2ccnc2-3)cc1` [Compound 323, 4-(7-(2,6-diazaspiro[3.4]octan-6-yl)-9H-imidazo[2,1-c]pyrido[3,4-e]pyrrolo[1,2-a][1,4]diazepin-12-yl)benzonitrile] in this work. An IC50 of less than 50 nM was found for `CCN1CC2(CCN(c3ccc4c(c3)Cn3cc(-c5ccc(F)cc5)cc3-c3nccn3-4)C2)C1` [Compound 367, 7-(2-ethyl-2,6-diazaspiro[3.4]octan-6-yl)-12-(4-fluorophenyl)-9H-benzo[e]imidazo[2,1-c] pyrrolo[1,2-a][1,4]diazepine] in this work. An IC50 of 50 to 100 nM was found for `CN(C)[C@H]1CN(c2ccc3c(c2)Cn2cc(-c4ccc(C#N)cc4)cc2-c2nncn2-3)C[C@@H]1O` [Compound 58, 4-(7-((3S,4S)-3-(dimethylamino)-4-hydroxypyrrolidin-1-yl)-9H-benzo[e]pyrrolo[1,2-a][1,2,4]triazolo[3,4-c][1,4]diazepin-12-yl)benzonitrile] in this work. An IC50 of less than 50 nM was found for `CN(C)[C@@H]1CCN(c2ccc3c(c2)Cn2cc(-c4ccc(F)cc4)cc2-c2nccn2-3)C1` [Compound 379, (R)-1-(12-(4-fluorophenyl)-9H-benzo[e]imidazo[2,1-c]pyrrolo[1,2-a][1,4]diazepin-7-yl)-N,N-dimethylpyrrolidin-3-amine] in this work. An IC50 of less than 50 nM was found for `OCCN1CC2(CCN(c3ccc4c(c3)Cn3cc(-c5ccc(F)cc5)cc3-c3nccn3-4)C2)C1` [Compound 369, 2-(6-(12-(4-fluorophenyl)-9H-benzo[e]imidazo[2,1-c]pyrrolo[1,2-a][1,4]diazepin-7-yl)-2,6-diazaspiro[3.4]octan-2-yl)ethanol] in this work. An IC50 of 50 to 100 nM was found for `CN(C)[C@H]1CCN(c2ccc3c(c2)Cn2cc(-c4ccc(F)cc4)cc2-c2nnnn2-3)C1` [Compound 407, (S)-1-(12-(4-fluorophenyl)-9H-benzo[e]pyrrolo[1,2-a]tetrazolo[5,1-c][1,4]diazepin-7-yl)-N,N-dimethylpyrrolidin-3-amine] in this work. An IC50 of 50 to 100 nM was found for `CNCC1CN(c2ccc3c(c2)Cn2cc(-c4ccc(C#N)cc4)cc2-c2ncnn2-3)C1` [Compound 250, 4-(7-(3-((methylamino)methyl)azetidin-1-yl)-9H-benzo[e]pyrrolo[1,2-a][1,2,4]triazolo[5,1-c] [1,4]diazepin-12-yl)benzonitrile] in this work. An IC50 of less than 50 nM was found for `CN(C)[C@H]1CCN(c2ccc3c(c2)Cn2cc(-c4ccc(C#N)cc4)cc2-c2ncnn2-3)C1` [Compound 260, (S)-4-(7-(3-(dimethylamino)pyrrolidin-1-yl)-9H-benzo[e]pyrrolo[1,2-a][1,2,4]triazolo[5,1-c][1,4]diazepin-12-yl)benzonitrile] in this work. An IC50 of less than 50 nM was found for `CNC[C@H]1CN(c2ccc3c(c2)Cn2cc(-c4ccc(C#N)cc4)cc2-c2nncn2-3)C[C@@H]1O` (relative stereo) [Compound 72, 4-(7-(trans-3-hydroxy-4-((methylamino)methyl)pyrrolidin-1-yl)-9H-benzo[e]pyrrolo[1,2-a][1,2,4]triazolo[3,4-c][1,4]diazepin-12-yl)benzonitrile] in this work. An IC50 of less than 50 nM was found for `CN(C)C[C@H]1CN(c2ccc3c(c2)Cn2cc(-c4ccc(C#N)cc4)cc2-c2nncn2-3)C[C@@H]1O` [Compound 109, 4-(7-((3S,4R)-3-((dimethylamino)methyl)-4-hydroxypyrrolidin-1-yl)-9H-benzo[e]pyrrolo[1,2-a][1,2,4]triazolo[3,4-c][1,4]diazepin-12-yl)benzonitrile] in this work. An IC50 of less than 50 nM was found for `CC(C)(CO)NC[C@@H]1CCN(c2ccc3c(c2)Cn2cc(-c4ccc(F)cc4)cc2-c2nccn2-3)C1` [Compound 360, (S)-2-(((1-(12-(4-fluorophenyl)-9H-benzo[e]imidazo[2,1-c]pyrrolo[1,2-a][1,4]diazepin-7-yl)pyrrolidin-3-yl)methyl)amino)-2-methylpropan-1-ol] in this work. An IC50 of 100 to 200 nM was found for `OC[C@@H]1CNC[C@H]1Nc1ccc2c(c1)Cn1cc(-c3ccc(F)cc3)cc1-c1nccn1-2` (relative stereo) [Compound 495, (Trans-4-((12-(4-fluorophenyl)-9H-benzo[e]imidazo[2,1-c]pyrrolo[1,2-a][1,4]diazepin-7-yl)amino)pyrrolidin-3-yl)methanol] in this work. An IC50 of less than 50 nM was found for `C[C@H]1c2cc(N3C[C@@H](CN(C)C)[C@H](O)C3)ccc2-n2ccnc2-c2cc(-c3ccc(F)cc3)cn21` [Compound 509, (3S,4R)-4-((dimethylamino)methyl)-1-((S)-12-(4-fluorophenyl)-9-methyl-9H-benzo[e]imidazo[2,1-c]pyrrolo[1,2-a][1,4]diazepin-7-yl)pyrrolidin-3-ol] in this work. An IC50 of 100 to 200 nM was found for `CN[C@H]1CCN(c2ccc3c(c2)Cn2cc(-c4ccc(F)cc4F)cc2-c2ncnn2-3)C1` [Compound 451, (S)-1-(12-(2,4-difluorophenyl)-9H-benzo[e]pyrrolo[1,2-a][1,2,4]triazolo[5,1-c][1,4]diazepin-7-yl)-N-methylpyrrolidin-3-amine] in this work. An IC50 of less than 50 nM was found for `CNCC[C@H]1CN(c2ccc3c(c2)Cn2cc(-c4ccc(F)cc4)cc2-c2nccn2-3)C[C@@H]1O` (relative stereo) [Compound 493, Trans-1-(12-(4-fluorophenyl)-9H-benzo[e]imidazo[2,1-c]pyrrolo[1,2-a][1,4]diazepin-7-yl)-4-(2-(methylamino)ethyl)pyrrolidin-3-ol] in this work. An IC50 of less than 50 nM was found for `C[C@H](CO)NC[C@H]1CCN(c2ccc3c(c2)Cn2cc(-c4ccc(C#N)cc4)cc2-c2nncn2-3)C1` [Compound 85, 4-(7-((R)-3-((((R)-1-hydroxypropan-2-yl)amino)methyl)pyrrolidin-1-yl)-9H-benzo[e]pyrrolo[1,2-a][1,2,4]triazolo[3,4-c][1,4]diazepin-12-yl)benzonitrile] in this work. An IC50 of 50 to 100 nM was found for `CN(C)[C@@H]1CN(c2ccc3c(n2)Cn2cc(-c4ccc(C#N)cc4)cc2-c2nccn2-3)C[C@@H]1O` [Compound 303, 4-(7-((3R,4S)-3-(dimethylamino)-4-hydroxypyrrolidin-1-yl)-9H-imidazo[2,1-c]pyrido[3,2-e]pyrrolo[1,2-a][1,4]diazepin-12-yl)benzonitrile] in this work. An IC50 of less than 50 nM was found for `CNC[C@@H]1CN(c2ccc3c(c2)Cn2cc(-c4ccc(F)cc4)cc2-c2nccn2-3)C[C@H]1O` [Compound 364, (3S,4R)-1-(12-(4-fluorophenyl)-9H-benzo[e]imidazo[2,1-c]pyrrolo[1,2-a][1,4]diazepin-7-yl)-4-((methylamino)methyl)pyrrolidin-3-ol] in this work. An IC50 of 100 to 200 nM was found for `C[C@H](CO)NC[C@H]1CCN(c2cc3c(cn2)-n2ccnc2-c2cc(-c4ccc(F)cc4)cn2C3)C1` [Compound 442, (R)-2-((((R)-1-(12-(4-fluorophenyl)-9H-imidazo[2,1-c]pyrido[3,4-e]pyrrolo[1,2-a][1,4]diazepin-7-yl)pyrrolidin-3-yl)methyl)amino)propan-1-ol] in this work. An IC50 of less than 50 nM was found for `CN1CC2(CCN(c3ccc4c(c3)Cn3cc(-c5ccc(C#N)cc5)cc3-c3nnnn3-4)C2)C1` [Compound 240, 4-(7-(2-methyl-2,6-diazaspiro[3.4]octan-6-yl)-9H-benzo[e]pyrrolo[1,2-a]tetrazolo[5,1-c] [1,4]diazepin-12-yl)benzonitrile] in this work. An IC50 of less than 50 nM was found for `CN1CC2(CCN(c3ccc4c(c3)Cn3cc(-c5ccc(F)cc5)cc3-c3nccn3-4)C2)C1` [Compound 344, 12-(4-fluorophenyl)-7-(2-methyl-2,6-diazaspiro[3.4]octan-6-yl)-9H-benzo[e]imidazo[2,1-c] pyrrolo[1,2-a][1,4]diazepine] in this work. An IC50 of 50 to 100 nM was found for `Cc1nnc2n1-c1ccc(N3CC[C@H](CN(C)C)C3)cc1Cn1cc(-c3ccc(C#N)cc3)cc1-2` [Compound 229, 4-(7-((R)-3-((dimethylamino)methyl)pyrrolidin-1-yl)-3-methyl-9H-benzo[e]pyrrolo[1,2-a] [1,2,4]triazolo[3,4-c][1,4]diazepin-12-yl)benzonitrile] in this work. An IC50 of 100 to 200 nM was found for `OC[C@@H]1CN(c2ccc3c(c2)Cn2cc(-c4ccc(F)cc4)cc2-c2nccn2-3)C[C@H]1O` [Compound 485, (3S,4S)-1-(12-(4-fluorophenyl)-9H-benzo[e]imidazo[2,1-c]pyrrolo[1,2-a][1,4]diazepin-7-yl)-4-(hydroxymethyl)pyrrolidin-3-ol] in this work.
